This passage reports IC50 results from BindingDB's records for doi:10.1021/jm00032a002 (Merck Sharp and Dohme Research Laboratories, 1994).

The target of the assay is Gastrin/cholecystokinin type B receptor (Cavia porcellus). Kind of assay: Binding activity against Cholecystokinin type B receptor from guinea pig cortex using [125]BH CCK-8s as radioligand.

For the molecule `Cc1cccc(NC(=O)NC2N=C(N3CCCCC3)c3ccccc3N(C)C2=O)c1` (stereo unspecified) [1-(1-Methyl-2-oxo-5-piperidin-1-yl-2,3-dihydro-1H-benzo[e][1,4]diazepin-3-yl)-3-m-tolyl-urea], the IC50 (as a rule, the point on the concentration scale where inhibition reaches its midpoint) is 5.7 nM. That is a single-digit nanomolar value.
